From patent publication US9896482B2, “Beta hairpin peptides having antiviral properties against Dengue virus” (CENTRO DE INGENIERÍA GENÉTICA Y BIOTECNOLOGÍA, priority 2014, dated 2018)
Where a SMILES comes first, the peptide text is derived from it. Bridges are numbered along the chain shown (N, C = ends). [ ]: non-standard residue; d: D form.

What was measured:
Vero cells = assay: Toxicity in Vero cells (MTT assay and manual cell counting); assay type: cell-based; conditions: ‡ non toxic at 1000 μM
Procedure: (§1) The toxicity of the beta hairpin peptides was assessed with the MTT (3-(4,5-dimethylthiazol-2-yl)-2,5-diphenyltetrazolium bromide, Invitrogen, USA) assay (Mosmann, T. (1983). J. Immunol. Methods 65, 55-63.), and by manual cell counting using a Neubauer chamber. Ninety-six well plates (Costar, USA) were seeded with 200 μL/well of a suspension containing Vero cells at 1×10^5 cells/mL and incubated until the monolayers reached approximately 90% confluence, typically for 18-24 h. After washing the cells twice with DMEM (Dulbecco's Modified Eagle Medium) medium, 50 μL/well were added of the peptide or additive dilutions to be evaluated (Triton ^X-100™ dissolved in PBS was used as positive toxicity control) and the plates were incubated at 37° C. under a 5% CO2 atmosphere for 2 or 24 h. Two different procedures were then employed to measure toxicity: • a) A 2 mg/mL solution of MTT in PBS was added (50 μL/well) and the plates were incubated for further 4 h at 37° C., 5% CO2. The medium was then removed, and 100 μL/well of DMSO were then added to solubilize formazan precipitates. Finally, the optical density (OD) of the supernatants at a wavelength of 540 nm was measured using a plate reader (Sensident Scan™, Merck, Germany). • b) The plates were washed with 200 μL/well of DMEM medium and then a trypsin solution (Sigma, USA) was added at 50 μL/well. After inactivating the trypsin by adding 150 μL/well of DMEM supplemented with 10% FBS, the cells were counted using the Trypan Blue (Gibco, USA) vital stain. The data were processed using the statistical software package Prism v5.3 (GraphPad, USA), using non-linear regression to fit them to a log10 (concentration) vs response curve.

[1] = test system: DENV serotype 2 (NIBSC code S16803); assay: Plaque reduction assay in Vero cells, DENV2; assay type: cell-based, Dengue virus; conditions: DENV2, plaque reduction; NA = no detectable activity at concentrations lower than or equal to 100 μM; read-out: IC50, antiviral activity in Vero cells (50% inhibitory activity)
Procedure: The cells were grown in 24 well plates until the monolayer reached approximately 90% confluence, after which they were washed twice with MEM medium without Fetal Bovine Serum (FBS). Then, peptide dilutions were added and the cell-peptide mixtures were incubated typically for 1 hour at 37° C., followed by the addition of a DENV serotype 2 preparation (NIBSC code S16803) at a multiplicity of infection (m.o.i.) of 0.001. The cells were then incubated for 1 hour at 37° C., and once the period of incubation with the viral inoculum concluded, were washed again to remove unbound virions and incubated for 5 days at 37° C. in high density medium (MEM supplemented with non-essential amino acids, 1% FBS, 1% carboxymethylcellulose) in order to let viral plaques form. Afterwards, the cells were stained with 0.1% Naphtol Blue Black in 0.15 M sodium acetate. Two replicates per experimental point were used in each assay, and three independent determinations were performed for each sample.
Next, it was decided to compare the antiviral activity of peptides PHB4 and HDIII3CL against all four DENV serotypes, with the objective of comparing their respective IC50 values. This comparison was performed with plaque reduction assays on Vero cells, adding the viral inoculum for each serotype (DENV1, NIBSC code West Pac 74, DENV2, NIBSC, code S16803; DENV3, NIBSC, code CH53489; DENV 4, NIBSC code TVP360) at a m.o.i. of 0.001.

[2] = Toxicity in Vero cells (MTT assay and manual cell counting); assay type: cell-based; conditions: ‡ non toxic at 1000 μM, read-out: Ctox50
Procedure: as §1

sLRP1-CIV = biological target: T1, sLRP1-CIV (Homo sapiens, UniProt Q07954); assay: Biacore (SPR) binding to immobilized sLRP1-CIV; conditions: peptides at 20 μM
T1 construct: purchased R&D Systems, USA
Procedure: The interaction of the beta hairpin peptides with soluble fragments of the LRP1 receptor was studied by Surface Plasmon Resonance (SPR), using a Biacore X unit. In this technique, one of the interaction partners to be studied is immobilized on the surface of a chip, and the other interaction partner is dissolved in a solution that runs through the measurement cell on top of the interaction surface, under conditions of controlled flow. The association and dissociation of interacting partners is measured in resonance units (RU) and plotted, as a function of time, on charts known as ‘sensorgrams’. SPR, therefore, enables the experimenter to obtain detailed information about the interaction without having to label either interaction partner.
In this example, one channel of a CM5 chip (GE Healthcare, USA) was used to immobilize protein sLRP1-CIV on its surface at high density (see Table 6) and recombinant Human Serum Albumin (rHSA, Sigma-Aldrich, USA) was immobilized on the other channel.
Although it was decided to immobilize sLRP1-CIV at high density because these conditions make easier the detection of any potential interactions with compounds whose molecular weight is lower than that of average proteins (such as the peptides this experiment is intended to study), it must be stressed that in high-density surfaces, mass transfer limitations and the possibility of multivalent binding make difficult the accurate determination of kinetic constants. Therefore, and in order to characterize in greater detail the sLRP1-CIV binding surface, different RAP dilutions (0.6-20 μM) were loaded, and RU were registered under conditions of interaction equilibria (250 sec, see FIG. 13B). […] The data also indicate that immobilized sLRP1-CIV faithfully reproduces the previously reported characteristics of the LRP1-RAP interaction.
The binding of beta hairpin peptides to sLRP1-CIV was studied by loading 20 μM dilutions in running buffer of the different peptide variants onto the sLRP1-CIV chip characterized above. The high strength of the resulting signals is consistent with the binding of aggregated, rather than monomeric forms of the peptides. Therefore, the observed variations between different peptides may reflect either differences in the affinity of unitary peptide interactions or differences in aggregation numbers and/or geometries that lead to variations in the number of peptide units able to simultaneously engage immobilized sLRP1-CIV molecules in a multivalent manner. […] The difference between peptides HDIII3CL2 and HDIII3CL is that the former has an additional C-terminal lysine and has, therefore, a stronger cationic character, which may facilitate additional electrostatic interactions with the negatively charged LRP1 receptor.

| Molecule | Ctox50 (Vero cells) | IC50 [1] [µM] | CC50 [2] [µM] | Binding to sLRP1-CIV by SPR, in words (sLRP1-CIV) |
| --- | --- | --- | --- | --- |
| CC[C@H](C)[C@@H]1NC(=O)[C@H](Cc2ccccc2)NC(=O)[C@H](Cc2c[nH]c3ccccc23)NC(=O)[C@H](CC(N)=O)NC(=O)[C@H](C(C)C)NC(=O)[C@H](CCCCN)NC(=O)[C@H](CCCCN)NC(=O)[C@H](CC(=O)O)NC(=O)[C@H]2CCCN2C(=O)[C@H](CCC(=O)O)NC(=O)[C@H]([C@@H](C)O)NC(=O)[C@H](Cc2c[nH]c3ccccc23)NC(=O)[C@H](CC(N)=O)NC(=O)[C@H](C(C)C)NC(=O)[C@H](CCC(=O)O)NC(=O)[C@H]([C@@H](C)CC)NC(=O)[C@@H](N)CSSC[C@@H](C(=O)N[C@@H](CCCCN)C(=O)N[C@@H](CCCCN)C(=O)N[C@@H](CCCCN)C(N)=O)NC1=O [PHB3] (H-CIEVNWTE[dP]DKKVNWFICKKK-NH2; disulfide 1-18) | >>1000^‡ μM | 17 |  |  |
| CC(C)[C@H](NC(=O)[C@H](CC(N)=O)NC(=O)[C@H](Cc1c[nH]c2ccccc12)NC(=O)[C@@H](NC(=O)[C@H](Cc1c[nH]c2ccccc12)NC(=O)[C@H](CCCCN)NC(=O)[C@H](CC(N)=O)NC(=O)[C@@H](CCCCN)NC(=O)[C@H](CCC(=O)O)NC(=O)[C@H](Cc1c[nH]c2ccccc12)NC(=O)[C@H](CCCCN)NC(=O)[C@H](Cc1c[nH]c2ccccc12)NC(=O)[C@H](CC(N)=O)NC(=O)[C@H](Cc1c[nH]c2ccccc12)NC(=O)[C@@H](N)Cc1ccccc1)[C@@H](C)O)C(=O)N[C@@H](CCC(=O)O)C(=O)NCC(=O)NCC(=O)N[C@@H](CCCCN)C(=O)N[C@@H](CCCCN)C(=O)N[C@@H](CCCCN)C(N)=O [PHB5] (H-FWNWKWE[dK]NKWTWNVEGGKKK-NH2) |  | 17 | 259 |  |
| HDIII3CLC- |  |  |  | at most marginal interaction |
| HDIII3CLK- |  |  |  | detectable specific binding |
| CC(C)[C@H](NC(=O)[C@H](CC(N)=O)NC(=O)[C@H](Cc1c[nH]c2ccccc12)NC(=O)[C@@H](NC(=O)[C@H](Cc1c[nH]c2ccccc12)NC(=O)[C@H](CCCCN)NC(=O)[C@H](CC(N)=O)NC(=O)[C@H]1CCCN1C(=O)[C@H](CCC(=O)O)NC(=O)[C@H](Cc1c[nH]c2ccccc12)NC(=O)[C@H](CCCCN)NC(=O)[C@H](Cc1c[nH]c2ccccc12)NC(=O)[C@H](CC(N)=O)NC(=O)[C@H](Cc1c[nH]c2ccccc12)NC(=O)[C@@H](N)Cc1ccccc1)[C@@H](C)O)C(=O)N[C@@H](CCC(=O)O)C(=O)NCC(=O)NCC(=O)N[C@@H](CCCCN)C(=O)N[C@@H](CCCCN)C(=O)N[C@@H](CCCCN)C(N)=O [PHB6] (H-FWNWKWE[dP]NKWTWNVEGGKKK-NH2) |  | 33 | 411 |  |
| CC(C)[C@@H]1NC(=O)[C@H](CCCCN)NC(=O)[C@H](Cc2c[nH]c3ccccc23)NC(=O)[C@H](CCCCN)NC(=O)[C@H]2CCCN2C(=O)[C@H](CCCNC(=N)N)NC(=O)[C@H]([C@@H](C)O)NC(=O)[C@H](Cc2c[nH]c3ccccc23)NC(=O)[C@H](Cc2ccc(O)cc2)NC(=O)[C@H](C(C)C)NC(=O)[C@@H](N)CSSC[C@@H](C(=O)N[C@@H](CCCCN)C(=O)N[C@@H](CCCCN)C(=O)N[C@@H](CCCCN)C(N)=O)NC(=O)[C@H](Cc2c[nH]c3ccccc23)NC(=O)[C@H](CC(N)=O)NC1=O [PHB2] (H-CVYWTR[dP]KWKVNWCKKK-NH2; disulfide 1-14) |  | 12 | 85 |  |
| CC[C@H](C)[C@@H]1NC(=O)[C@H](Cc2ccccc2)NC(=O)[C@H](Cc2c[nH]c3ccccc23)NC(=O)[C@H](CC(N)=O)NC(=O)[C@H](Cc2ccc(O)cc2)NC(=O)[C@H](CCCCN)NC(=O)[C@H](CCCCN)NC(=O)CNC(=O)[C@H](CC(N)=O)NC(=O)[C@H]([C@@H](C)CC)NC(=O)[C@H]([C@@H](C)O)NC(=O)[C@H](C(C)C)NC(=O)[C@H](CC(N)=O)NC(=O)[C@H](C(C)C)NC(=O)[C@H](CCC(=O)O)NC(=O)[C@H]([C@@H](C)CC)NC(=O)[C@@H](N)CSSC[C@@H](C(=O)N[C@@H](CCCCN)C(=O)N[C@@H](CCCCN)C(=O)N[C@@H](CCCCN)C(N)=O)NC1=O [PHB8] (H-CIEVNVTINGKKYNWFICKKK-NH2; disulfide 1-18) |  | 15 | 300 |  |
| CC[C@H](C)[C@@H]1NC(=O)CNC(=O)[C@H]([C@@H](C)CC)NC(=O)[C@H](C(C)C)NC(=O)[C@H]([C@@H](C)CC)NC(=O)[C@H](CC(N)=O)NC(=O)[C@H](CO)NC(=O)[C@@H](N)CSSC[C@@H](C(=O)N[C@@H](CCCCN)C(=O)N[C@@H](CCCCN)C(=O)N[C@@H](CCCCN)C(N)=O)NC(=O)[C@H](Cc2c[nH]c3ccccc23)NC(=O)[C@H](CC(N)=O)NC(=O)[C@H]([C@@H](C)CC)NC(=O)[C@H](CCCCN)NC(=O)[C@H](CC(C)C)NC(=O)[C@H](C)NC(=O)[C@H](CCCCN)NC(=O)[C@H](CC(=O)O)NC(=O)CNC1=O [HDIII3CL2, reference compound] (H-CSNIVIGIGDKALKINWCKKK-NH2; disulfide 1-18) |  | 20 | 1000 |  |
| CC[C@H](C)[C@@H]1NC(=O)[C@H]([C@@H](C)O)NC(=O)[C@H](C(C)C)NC(=O)[C@H](CC(N)=O)NC(=O)[C@H](C(C)C)NC(=O)[C@@H](N)CSSC[C@@H](C(=O)N[C@@H](CCCCN)C(=O)N[C@@H](CCCCN)C(=O)N[C@@H](CCCCN)C(N)=O)NC(=O)[C@H](Cc2c[nH]c3ccccc23)NC(=O)[C@H](CC(N)=O)NC(=O)[C@H](Cc2ccc(O)cc2)NC(=O)[C@H](CCCCN)NC(=O)[C@H](CCCCN)NC(=O)CNC(=O)[C@H](CC(N)=O)NC1=O [PHB7] (H-CVNVTINGKKYNWCKKK-NH2; disulfide 1-14) |  | 79 | 1910 |  |
| CC[C@H](C)[C@@H]1NC(=O)[C@H](Cc2ccccc2)NC(=O)[C@H](Cc2c[nH]c3ccccc23)NC(=O)[C@H](CC(N)=O)NC(=O)[C@H](Cc2ccc(O)cc2)NC(=O)[C@H](CCCCN)NC(=O)[C@H](CCCCN)NC(=O)CNC(=O)[C@H](CC(N)=O)NC(=O)[C@H]([C@@H](C)CC)NC(=O)[C@H]([C@@H](C)O)NC(=O)[C@H](C(C)C)NC(=O)[C@H](Cc2ccc(O)cc2)NC(=O)[C@H](C(C)C)NC(=O)[C@H](CCC(=O)O)NC(=O)[C@H]([C@@H](C)CC)NC(=O)[C@@H](N)CSSC[C@@H](C(=O)N[C@@H](CCCCN)C(=O)N[C@@H](CCCCN)C(=O)N[C@@H](CCCCN)C(N)=O)NC1=O [PHB9] (H-CIEVYVTINGKKYNWFICKKK-NH2; disulfide 1-18) |  | 7 | 216 |  |
| HDIII3CLW- |  |  |  | detectable specific binding |
